How the values were obtained:
[1] = DPPH free radical scavenging experiment; format: biochemical; details: 100 μg/mL
Method: 1. DPPH Free Radical Scavenging Experiment: 1.1 Preparation of DPPH ethanol solution: precisely weighing 4 mg of […], putting into a 100 ml brown volumetric flask, and adding 50 ml of ethanol, the ultrasonic treatment was carried out for 30 seconds, ethanol was used for fixing the volume to scale, shaking, and the product needs to be freshly prepared when needed. 1.2 Preparation of test solution: precisely weighing 10 mg of walnut oligopeptide powder, and putting into a 50 ml brown volumetric flask, adding 30 ml of ethanol, carrying out ultrasonic treatment for 5 minutes, diluting with ethyl alcohol for fixing the volume to scale, and shaking. […]

[2] = ABTS+ free radical scavenging experiment; format: biochemical; details: 100 μg/mL
Method: 2. ABTS^+ Free Radical Scavenging Experiment: 2.1 Preparation of PBS buffer solution: weighing 8 g of sodium chloride, 0.2 g of potassium chloride, 0.24 g of monopotassium phosphate, and 3.62 g of disodium hydrogen phosphate dodecahydrate and putting them into a 1000 ml beaker, adding 800 ml of distilled water, stirring to dissolve, and adjusting the pH value to 7.4 by using hydrochloric acid or sodium hydroxide, transferring into a 1000 ml volumetric flask, adding distilled water to dilute, shaking evenly, and standing for later use. […] 2.5 Operation steps: accurately sucking 0.5 ml of test solution and 5 ml of ABTS working solution, and mixing uniformly; accurately sucking 0.5 ml of test solution and 5 ml of PBS buffer solution, and mixing uniformly; accurately sucking 5 ml of ABTS working solution and 0.5 ml of PBS buffer solution, and mixing uniformly, the absorbance was measured immediately at 734 nm, and the free radical removal rate was calculated according to the following formula: IR%=[1−(Ai−Aj)/A0]*100%; in which, Ai represents the absorbance of the mixture of the test solution and ABTS, Aj represents the absorbance of the mixture of the test solution and solvent, and A0 represents the absorbance of the mixture of ABTS and solvent. […]

[3] = SRSA superoxide anion free radical scavenging experiment; format: biochemical; details: 100 μg/mL
Method: 3. SRSA Superoxide Anion Free Radical Scavenging Experiment: 3.1 Preparation of 0.1 moL/L PBS buffer solution (pH 7.4): 80 g of sodium chloride, 2 g of potassium chloride, 2.4 g of monopotassium phosphate and 23.1 g of dipotassium hydrogen phosphate trihydrate were weighted and placed in 1000 ml beaker, adding 600 ml of distilled water, stirring to dissolve, and adjusting the pH to […] with hydrochloric acid or sodium hydroxide, transferring into 1000 ml volumetric flask, adding distilled water to dilute to the scale, shaking evenly, and standing for later use. […] 3.7 Operation steps: accurately sucking 0.5 ml of test solution and 5 ml of the working solution, and uniformly mixing; accurately sucking 0.5 ml of test solution and 5 ml of distilled water, and uniformly mixing; accurately sucking 5 ml of the working solution and 0.5 ml of distilled water, and uniformly mixing, the absorbance was determined immediately at 560 nm, and the free radical scavenging rate was calculated according to the following formula: IR%=[1−(Ai−Aj)/A0]*100%; in which, Ai represents the absorbance of the mixture of the test solution and […], Aj represents the absorbance of the mixture of the test solution and the solvent; and A0 represents the absorbance of the mixture of SRSA and solvent. […]

H2O2 induced PC12 cell = assay: Protection of PC12 cells against hydrogen peroxide damage (MTT); format: cell-based; details: 80 μg/ml, 6 hours pre-culture, then 100 μM H2O2 12 hours; model group 57.2
Method: PC12 nerve cell protection model: This is a good model for studying nerve cell physiology, pathology and pharmacology, and also a most common in-vitro drug screening model for studying Parkinson's disease and neuro-fatigue.
PC12 cells were cultured by using a high-sugar DMEM culture medium containing 10% fetal calf serum, and digesting for about 50 seconds by using 0.25% of pancreatin during cell passage, stopping digestion by using a DMEM culture medium containing 10% serum, and adding fresh culture medium to blow the cells uniformly. Cell density passage of 10^5/ml was carried out. 4 ml of culture solution containing cells was added to each bottle of cells, culturing under the conditions of 37° C. and 5% CO2. […]
The 96-well plate was respectively given to 100 μL of the walnut oligopeptide by a certain concentration gradient in each hole, after culturing for 24 hours, the cell vitality was detected by MTT method. […] The cell activity of the model group and the drug delivery group was calculated by taking the average value of the OD value of the control group as 100% of the cell activity. […]
The above groups were cultured under the same conditions, and then subsequent experiments were carried out. The cell activity was detected by MTT method in 96-well plates.

Row | Compound | DPPH scavenging rate % [1] [%] | ABTS^+ scavenging rate % [2] [%] | SRSA scavenging rate % [3] [%] | Cell activity(%) (H2O2 induced PC12 cell)
1 | O=C1O[C@H]([C@@H](O)CO)C(O)=C1O [Vitamin C] | 97.2 | 98.1 | 80.1 | 
2 | CC(=O)N[C@@H](CS)C(=O)O [Positive group, NAC] |  |  |  | 88.0

From patent publication US11072637B2, “Walnut oligopeptide powder, preparation method and application thereof” (Sinphar Tian-Li (Hangzhou) Pharmacy Company Limited, priority 2016, dated 2021)
